Entries after “also recorded” stand apart in the source; their conditions may differ.

Series [1] has as its target T1, tyrosinase (Agaricus bisporus, UniProt C7FF04). Type of series: biochemical, mushroom.
Target sequence in this assay (C7FF04 2-392): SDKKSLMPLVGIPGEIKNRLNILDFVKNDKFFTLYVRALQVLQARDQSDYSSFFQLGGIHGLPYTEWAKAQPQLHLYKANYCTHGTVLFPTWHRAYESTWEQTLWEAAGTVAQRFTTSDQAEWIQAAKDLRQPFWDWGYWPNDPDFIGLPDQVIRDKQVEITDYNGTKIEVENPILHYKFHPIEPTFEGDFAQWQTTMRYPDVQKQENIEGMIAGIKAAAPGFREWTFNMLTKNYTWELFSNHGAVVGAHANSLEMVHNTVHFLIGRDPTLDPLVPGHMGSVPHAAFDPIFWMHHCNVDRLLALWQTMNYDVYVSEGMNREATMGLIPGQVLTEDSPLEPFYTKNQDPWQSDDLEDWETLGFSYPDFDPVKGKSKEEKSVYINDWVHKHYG
For series [2], the target named is T1, tyrosinase. Conditions: Lineweaver-Burk plots; Vmax decreased, Km unchanged.
Target sequence in this assay (C7FF04 2-392): as above
A further series can be described thus: Cell viability assay. Type of series: cell-based. Conditions: human, HEK-293 cells.
The subject of a further series is fresh-cut apple slices. The series can be described thus: Anti-browning experiment with fresh-cut apple slices. Conditions: apple slices dipped 5 min, stored at 4 °C; compared with kojic acid.
The target in series [3] is T1, tyrosinase. The series can be described thus: ANS-binding fluorescence spectrum quenching. The arrangement: species or system mushroom. Particulars: 6j 0–59.41 μM.
Target sequence in this assay (C7FF04 1-392): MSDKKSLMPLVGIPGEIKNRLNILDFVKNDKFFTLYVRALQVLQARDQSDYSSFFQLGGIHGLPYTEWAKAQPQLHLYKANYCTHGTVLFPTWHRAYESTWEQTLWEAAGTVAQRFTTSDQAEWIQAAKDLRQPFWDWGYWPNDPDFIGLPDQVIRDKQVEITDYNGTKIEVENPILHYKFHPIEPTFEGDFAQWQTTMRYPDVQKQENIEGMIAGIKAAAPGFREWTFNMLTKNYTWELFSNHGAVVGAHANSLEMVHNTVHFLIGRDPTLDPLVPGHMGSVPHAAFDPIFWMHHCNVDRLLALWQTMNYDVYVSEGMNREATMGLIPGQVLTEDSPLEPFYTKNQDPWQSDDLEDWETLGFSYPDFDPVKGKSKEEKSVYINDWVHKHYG
Series [4] addresses T1, tyrosinase. The series is described as follows: Fluorescence spectrum quenching of tyrosinase. Type of series: binding, mushroom.
Target sequence in this assay (C7FF04 2-392): as the sequence (C7FF04 2-392) above
Setting [5] is: plot of Lg[(F0−F)/F] against Lg[Q].

For `COc1cc(C=O)cc(OC)c1OCc1cc(=O)c(O)co1` [6c], on tyrosinase [1], the “Inhibitory activity against tyrosinase (in words)” value (“Inhibitory activity” below) was “relatively lower inhibitory activity”.

In the case of `COc1cccc(C=O)c1OCc1cc(=O)c(O)co1` [6g], the “Inhibitory activity” value at tyrosinase [1] is recorded as “relatively lower inhibitory activity”.

Regarding `Cc1cc(C=O)cc(C)c1OCc1cc(=O)c(O)co1` [6h], the “Inhibitory activity” value at tyrosinase [1] was “relatively lower inhibitory activity”.

On to `CCOc1cccc(C=O)c1OCc1cc(=O)c(O)co1` [6i], for which, on tyrosinase [1], the “Inhibitory activity” value is given as “relatively lower inhibitory activity”.

As for `O=Cc1ccc(OCc2cc(=O)c(O)co2)cc1F` [6j], the Inhibition type entry at tyrosinase [2] is on record as “noncompetitive inhibitor”. In the series “Cell viability assay”, the viability at 24 h, 1 µM is 97.1 ± 2.49%; the viability at 24 h, 4 µM turned out to be 106 ± 8.83%; the viability at 24 h, 16 µM stood at 102 ± 10.1%; the viability at 24 h, 64 µM is 105 ± 7.27%. Besides, in the series “Cell viability assay”, the viability at 24 h, 256 µM worked out at 88.6 ± 3.61%. Also, the “Anti-browning effect (L*, ΔE, visual assessment)” value in the series on fresh-cut apple slices is “could delay the enzymatic browning of fresh-cut apples; also recorded: stronger anti-browning effect than kojic acid”. Further, on tyrosinase [3], the “ANS-binding fluorescence: maximum emission peak wavelength and intensity” value is recorded as “did not present an obvious change”. The “Anti-tyrosinase activity relative to the positive control kojic acid” value at tyrosinase [1] (ratio of IC50 values) is listed as “nine folds more active”. Also, the Type of quenching entry on tyrosinase [4] (Stern-Volmer analysis) is reported as “static quenching”. For the same compound, the “Ksv (Stern-Volmer quenching constant)” value at tyrosinase [4] (excitation 280 nm, 6j 4.99–24.79 μM) was 7040 M⁻¹. At tyrosinase [4] (setting [5]), the “Ka (binding constant)” value is 28900 M⁻¹ and the “n (binding sites)” value is reported as 1.24. Also, on tyrosinase [4] (τ0 10^−8 s), the “Kq (biomolecular quenching constant)” value came out at 7.04e+11 M⁻¹ s⁻¹.

With `COc1cc(C=O)cc(Br)c1OCc1cc(=O)c(O)co1` [6k], the “Inhibitory activity” value at tyrosinase [1] was “relatively lower inhibitory activity”.

One may read the viability as a read-out of living cells in per cent, often relative to untreated cells.

Source of the values: publication PMC9807860 (Current Research in Food Science, 2022).
